Experimental data reported in ChEMBL document CHEMBL4145553, “Design, synthesis, and biological evaluation of novel amide and hydrazide based thioether analogs targeting Histone deacteylase (HDAC) enzymes” (Eur J Med Chem, 2018).

Assays:
[1] = test system: MDA-MB-468; assay: Growth inhibition of human MDA-MB-468 cells assessed as cell growth at 10^-4 M incubated for 48 hrs by sulforhodamine B assay relative to control; assay type: functional; conditions: MDA-MB-468, 48 h, read-out: Activity
[2] = test system: M14; assay: Growth inhibition of human M14 cells assessed as cell growth at 10^-6 M incubated for 48 hrs by sulforhodamine B assay relative to control; assay type: functional; conditions: M14, 48 h, read-out: Activity
[3] = test system: OVCAR-3; assay: Growth inhibition of human OVCAR3 cells assessed as cell growth at 10^-5 M incubated for 48 hrs by sulforhodamine B assay relative to control; assay type: functional; conditions: OVCAR-3, 48 h, read-out: Activity
[4] = test system: CCRF-CEM; assay: Growth inhibition of human CCRF-CEM cells assessed as cell growth at 10^-5 M incubated for 48 hrs by sulforhodamine B assay relative to control; assay type: functional; conditions: read-out: Activity
[5] = test system: SK-MEL-5; assay: Growth inhibition of human SK-MEL-5 cells assessed as cell growth at 10^-6 M incubated for 48 hrs by sulforhodamine B assay relative to control; assay type: functional; conditions: SK-MEL-5, 48 h, read-out: Activity
[6] = test system: SR; assay: Growth inhibition of human SR cells assessed as cell growth at 10^-6 M incubated for 48 hrs by sulforhodamine B assay relative to control; assay type: functional; conditions: read-out: Activity
[7] = test system: HL-60; assay: Cell cycle arrest in human HL60 cells assessed as accumulation at G1-phase by propidium iodide staining based flow cytometry (reference value: 67.27%); assay type: functional
[8] = test system: EKVX; assay: Growth inhibition of human EKVX cells assessed as cell growth at 10^-5 M incubated for 48 hrs by sulforhodamine B assay relative to control; assay type: functional; conditions: read-out: Activity
[9] = test system: SK-MEL-28; assay: Growth inhibition of human SK-MEL-28 cells assessed as cell growth at 10^-8 M incubated for 48 hrs by sulforhodamine B assay relative to control; assay type: functional; conditions: SK-MEL-28, 48 h, read-out: Activity
[10] = test system: SNB-19; assay: Growth inhibition of human SNB19 cells assessed as cell growth at 10^-4 M incubated for 48 hrs by sulforhodamine B assay relative to control; assay type: functional; conditions: SNB-19, 48 h, read-out: Activity
[11] = test system: MDA-MB-231; assay: Growth inhibition of human MDA-MB-231 cells incubated for 48 hrs by sulforhodamine B assay; assay type: functional; conditions: MDA-MB-231, 48 h
[12] = test system: NCI-H226; assay: Growth inhibition of human NCI-H226 cells assessed as cell growth at 10^-8 M incubated for 48 hrs by sulforhodamine B assay relative to control; assay type: functional; conditions: NCI-H226, 48 h, read-out: Activity
[13] = test system: TK-10; assay: Growth inhibition of human TK10 cells assessed as cell growth at 10^-5 M incubated for 48 hrs by sulforhodamine B assay relative to control; assay type: functional; conditions: TK-10, 48 h, read-out: Activity
[14] = test system: SF-539; assay: Growth inhibition of human SF539 cells assessed as cell growth at 10^-6 M incubated for 48 hrs by sulforhodamine B assay relative to control; assay type: functional; conditions: SF-539, 48 h, read-out: Activity
[15] = test system: CCRF-CEM; assay: Growth inhibition of human CCRF-CEM cells incubated for 48 hrs by sulforhodamine B assay; assay type: functional
[16] = test system: OVCAR-5; assay: Growth inhibition of human OVCAR5 cells assessed as cell growth at 10^-6 M incubated for 48 hrs by sulforhodamine B assay relative to control; assay type: functional; conditions: OVCAR-5, 48 h, read-out: Activity
[17] = test system: 786-0; assay: Growth inhibition of human 786-0 cells assessed as cell growth at 10^-4 M incubated for 48 hrs by sulforhodamine B assay relative to control; assay type: functional; conditions: 786-0, 48 h, read-out: Activity
[18] = test system: RXF 393; assay: Growth inhibition of human RXF393 cells assessed as cell growth at 10^-4 M incubated for 48 hrs by sulforhodamine B assay relative to control; assay type: functional; conditions: RXF 393, 48 h, read-out: Activity
[19] = test system: NCI-H460; assay: Growth inhibition of human NCI-H460 cells assessed as cell growth at 10^-8 M incubated for 48 hrs by sulforhodamine B assay relative to control; assay type: functional; conditions: NCI-H460, 48 h, read-out: Activity
[20] = target: Histone deacetylase 1 (Homo sapiens, UniProt Q13547); assay: Inhibition of human HDAC1 by ELISA
[21] = test system: UO-31; assay: Growth inhibition of human UO31 cells assessed as cell growth at 10^-7 M incubated for 48 hrs by sulforhodamine B assay relative to control; assay type: functional; conditions: UO-31, 48 h, read-out: Activity
[22] = test system: HCT-116; assay: Growth inhibition of human HCT116 cells assessed as cell growth at 10^-6 M incubated for 48 hrs by sulforhodamine B assay relative to control; assay type: functional; conditions: HCT-116, 48 h, read-out: Activity
[23] = test system: HCT-116; assay: Growth inhibition of human HCT116 cells assessed as cell growth at 10^-4 M incubated for 48 hrs by sulforhodamine B assay relative to control; assay type: functional; conditions: HCT-116, 48 h, read-out: Activity
[24] = test system: COLO 205; assay: Growth inhibition of human COLO205 cells assessed as cell growth at 10^-6 M incubated for 48 hrs by sulforhodamine B assay relative to control; assay type: functional; conditions: COLO 205, 48 h, read-out: Activity
[25] = test system: HCC 2998; assay: Growth inhibition of human HCC2998 cells assessed as cell growth at 10^-6 M incubated for 48 hrs by sulforhodamine B assay relative to control; assay type: functional; conditions: HCC 2998, 48 h, read-out: Activity
[26] = test system: UACC-62; assay: Growth inhibition of human UACC62 cells assessed as cell growth at 10^-6 M incubated for 48 hrs by sulforhodamine B assay relative to control; assay type: functional; conditions: UACC-62, 48 h, read-out: Activity
[27] = test system: HOP-62; assay: Growth inhibition of human HOP62 cells assessed as cell growth at 10^-4 M incubated for 48 hrs by sulforhodamine B assay relative to control; assay type: functional; conditions: HOP-62, 48 h, read-out: Activity
[28] = test system: OVCAR-8; assay: Growth inhibition of human OVCAR8 cells incubated for 48 hrs by sulforhodamine B assay; assay type: functional; conditions: OVCAR-8, 48 h
[29] = test system: RXF 393; assay: Growth inhibition of human RXF393 cells assessed as cell growth at 10^-7 M incubated for 48 hrs by sulforhodamine B assay relative to control; assay type: functional; conditions: RXF 393, 48 h, read-out: Activity
[30] = test system: HL-60; assay: Induction of apoptosis in human HL60 cells assessed as live cells by propidium iodide/Annexin V staining based flow cytometry (reference value: 96.94%); assay type: functional
[31] = test system: UACC-62; assay: Growth inhibition of human UACC62 cells assessed as cell growth at 10^-5 M incubated for 48 hrs by sulforhodamine B assay relative to control; assay type: functional; conditions: UACC-62, 48 h, read-out: Activity
[32] = test system: T47D; assay: Growth inhibition of human T47D cells assessed as cell growth at 10^-5 M incubated for 48 hrs by sulforhodamine B assay relative to control; assay type: functional; conditions: read-out: Activity
[33] = read-out: LC50 (the source's name)
[34] = read-out: pLC50 (the source's name) (converted)

Chain of Histone deacetylase 1 (Q13547 whole entry): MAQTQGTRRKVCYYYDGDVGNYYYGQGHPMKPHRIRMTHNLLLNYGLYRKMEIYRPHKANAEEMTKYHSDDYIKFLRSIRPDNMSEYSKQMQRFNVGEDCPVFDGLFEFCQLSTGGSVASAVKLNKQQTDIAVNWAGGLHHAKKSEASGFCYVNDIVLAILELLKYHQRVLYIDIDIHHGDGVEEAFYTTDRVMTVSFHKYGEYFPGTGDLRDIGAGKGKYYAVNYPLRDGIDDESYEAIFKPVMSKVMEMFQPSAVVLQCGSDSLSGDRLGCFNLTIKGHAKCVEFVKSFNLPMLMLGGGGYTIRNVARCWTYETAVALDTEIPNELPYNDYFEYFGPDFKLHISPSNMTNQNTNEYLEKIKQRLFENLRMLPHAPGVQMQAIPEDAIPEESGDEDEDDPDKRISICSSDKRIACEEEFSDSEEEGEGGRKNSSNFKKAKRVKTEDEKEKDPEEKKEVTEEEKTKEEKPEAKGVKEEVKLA

Structure (SMILES): CCS/C(Nc1ccccc1)=C(\C#N)C(=O)N/N=C\c1ccc(Cl)cc1Cl
- growth at 100 µM [1]: -7%
- growth at 1 µM [2]: 72%
- growth at 10 µM [3]: 1%
- growth at 10 µM [4]: 16%
- growth at 1 µM [5]: 81%
- growth at 1 µM [6]: 76%
- Activity [7]: 46.38%
- growth at 10 µM [8]: 35%
- growth at 0.01 µM [9]: 104%
- growth at 100 µM [10]: 21%
- GI50 ([11]; read-out: GI50): 4.75 µM
- CC50 [11, 33]: > 100 µM
- TGI ([11]; read-out: TGI): > 100 µM
- GI50 ([11]; read-out: pGI50 (converted)): 4.79 µM
- CC50 [11, 34]: > 100 µM
- TGI ([11]; read-out: pTGI (converted)): > 100 µM
- growth at 0.01 µM [12]: 90%
- growth at 10 µM [13]: 50%
- growth at 1 µM [14]: 90%
- GI50 ([15]; read-out: GI50): 3.07 µM
- CC50 [15, 33]: > 100 µM
- TGI ([15]; read-out: TGI): > 100 µM
- GI50 ([15]; read-out: pGI50 (converted)): 3.09 µM
- CC50 [15, 34]: > 100 µM
- TGI ([15]; read-out: pTGI): > 100 µM
- growth at 1 µM [16]: 101%
- growth at 100 µM [17]: 7%
- growth at 100 µM [18]: -22%
- growth at 0.01 µM [19]: 100%
- IC50 [20]: 0.07 µM
- growth at 0.1 µM [21]: 90%
- growth at 1 µM [22]: 89%
- growth at 100 µM [23]: 3%
- growth at 1 µM [24]: 99%
- growth at 1 µM [25]: 99%
- growth at 1 µM [26]: 69%
- growth at 100 µM [27]: 8%
- GI50 ([28]; read-out: GI50): 4.81 µM
- CC50 [28, 33]: > 100 µM
- TGI ([28]; read-out: TGI): > 100 µM
- GI50 ([28]; read-out: pGI50 (converted)): 4.79 µM
- CC50 [28, 34]: > 100 µM
- TGI ([28]; read-out: pTGI): > 100 µM
- growth at 0.1 µM [29]: 87%
- Activity [30]: 79.88%
- growth at 10 µM [31]: 26%
- growth at 10 µM [32]: 24%

Structure (SMILES): CCS/C(Nc1ccccc1)=C(\C#N)C(=O)Nc1ccc(OC)cc1
- growth at 100 µM [1]: -24%
- growth at 1 µM [2]: 72%
- growth at 10 µM [3]: -6%
- growth at 10 µM [4]: 11%
- growth at 1 µM [5]: 80%
- growth at 1 µM [6]: 57%
- Activity [7]: 54.11%
- growth at 10 µM [8]: 31%
- growth at 0.01 µM [9]: 101%
- growth at 100 µM [10]: 14%
- GI50 ([11]; read-out: GI50): 4.14 µM
- CC50 [11, 33]: > 100 µM
- TGI ([11]; read-out: TGI): 36.5 µM
- GI50 ([11]; read-out: pGI50 (converted)): 4.17 µM
- CC50 [11, 34]: > 100 µM
- TGI ([11]; read-out: pTGI (converted)): 36.3 µM
- growth at 0.01 µM [12]: 95%
- growth at 10 µM [13]: 66%
- growth at 1 µM [14]: 87%
- GI50 ([15]; read-out: GI50): 1.83 µM
- CC50 [15, 33]: > 100 µM
- TGI ([15]; read-out: TGI): > 100 µM
- GI50 ([15]; read-out: pGI50 (converted)): 1.82 µM
- CC50 [15, 34]: > 100 µM
- TGI ([15]; read-out: pTGI): > 100 µM
- growth at 1 µM [16]: 98%
- growth at 100 µM [17]: 6%
- growth at 100 µM [18]: -20%
- growth at 0.01 µM [19]: 105%
- IC50 [20]: 0.038 µM
- growth at 0.1 µM [21]: 91%
- growth at 1 µM [22]: 69%
- growth at 100 µM [23]: -11%
- growth at 1 µM [24]: 96%
- growth at 1 µM [25]: 91%
- growth at 1 µM [26]: 71%
- growth at 100 µM [27]: 37%
- GI50 ([28]; read-out: GI50): 4.37 µM
- CC50 [28, 33]: > 100 µM
- TGI ([28]; read-out: TGI): > 100 µM
- GI50 ([28]; read-out: pGI50 (converted)): 4.37 µM
- CC50 [28, 34]: > 100 µM
- TGI ([28]; read-out: pTGI): > 100 µM
- growth at 0.1 µM [29]: 100%
- Activity [30]: 84%
- growth at 10 µM [31]: 21%
- growth at 10 µM [32]: 25%
